Source: PubChem BioAssay (NCI)
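Tested at 5 concentrations; 48 h exposure; 96-well plates; endpoints linearly interpolated, else capped at highest concentration. TGI is the concentration that stops growth completely.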

Tests used:
Assay in all cases: NCI-60 cell line screen, 48 h
A549 NSCLC = tested on: A549 NSCLC
DMS 114 small cell lung = tested on: DMS 114 small cell lung
EKVX NSCLC = tested on: EKVX NSCLC
HOP-92 NSCLC = tested on: HOP-92 NSCLC
M14 melanoma = tested on: M14 melanoma
MALME-3M melanoma = tested on: MALME-3M melanoma
OVCAR-3 ovarian = tested on: OVCAR-3 ovarian
OVCAR-4 ovarian = tested on: OVCAR-4 ovarian
OVCAR-5 ovarian = tested on: OVCAR-5 ovarian
RXF 393 renal = tested on: RXF 393 renal
SK-MEL-2 melanoma = tested on: SK-MEL-2 melanoma
SK-MEL-5 melanoma = tested on: SK-MEL-5 melanoma
SK-OV-3 ovarian = tested on: SK-OV-3 ovarian
SW-620 colon = tested on: SW-620 colon
TK-10 renal = tested on: TK-10 renal
NCI/ADR-RES ovarian = tested on: NCI/ADR-RES ovarian
HS 578T breast = tested on: HS 578T breast
MDA-N = tested on: MDA-N
T-47D breast = tested on: T-47D breast

SMILES	TGI (A549 NSCLC)	TGI (DMS 114 small cell lung)	TGI (EKVX NSCLC)	TGI (HOP-92 NSCLC)	TGI (M14 melanoma)	TGI (MALME-3M melanoma)	TGI (OVCAR-3 ovarian)	TGI (OVCAR-4 ovarian)	TGI (OVCAR-5 ovarian)	TGI (RXF 393 renal)	TGI (SK-MEL-2 melanoma)	TGI (SK-MEL-5 melanoma)	TGI (SK-OV-3 ovarian)	TGI (SW-620 colon)	TGI (TK-10 renal)	TGI (NCI/ADR-RES ovarian)	TGI (HS 578T breast)	TGI (MDA-N)	TGI (T-47D breast)
CCCCCCCSCC1C(=O)C23C(O)C1CCC2C12COC3(O)C(O)C1C(C)(C)CCC2O (configuration not stated)	39.3 µM	23.1 µM	32.9 µM	31.8 µM	24.7 µM	27.4 µM	30.3 µM	25.3 µM	31.4 µM	27.1 µM	29.8 µM	25.1 µM	32 µM	3.23 µM	29.5 µM				
C=CCCCCCC(O)C(O)C/C=C\C/C=C\CC (configuration not stated)	> 18.8 µM	> 18.8 µM	> 18.8 µM	> 18.8 µM	> 18.8 µM	> 18.8 µM	> 18.8 µM	> 18.8 µM	> 18.8 µM	> 18.8 µM	> 18.8 µM	> 18.8 µM	> 18.8 µM	> 18.8 µM	> 18.8 µM				
CC1=NN(C(=O)c2ccc(Cl)cc2)C(=O)/C1=C/c1ccc(O)cc1	> 100 µM	> 100 µM	> 100 µM	> 100 µM	> 100 µM	> 100 µM	> 100 µM	> 100 µM	> 100 µM	> 100 µM	> 100 µM	> 100 µM	> 100 µM	> 100 µM	> 100 µM				
CCOC(=O)/C=C/c1c[nH]c(C(=O)OCC)c1	> 100 µM	> 100 µM	> 100 µM	> 100 µM		> 100 µM	> 100 µM	> 100 µM	> 100 µM	> 100 µM	> 100 µM	> 100 µM	> 100 µM	> 100 µM		> 100 µM			
FC(F)(F)C1(C(F)(F)F)O[SiH]2(OC(C(F)(F)F)(C(F)(F)F)c3ccccc32)c2ccccc21		29.1 µM	39.4 µM		29.4 µM	42 µM	40.6 µM	23.4 µM	28.4 µM	31.2 µM	49.3 µM			45.4 µM	45.5 µM				
COc1ccc(CCc2ccccc2CC(=O)O)cc1	> 100 µM	> 100 µM	> 100 µM	> 100 µM	> 100 µM	> 100 µM	> 100 µM	> 100 µM	> 100 µM	> 100 µM	> 100 µM	> 100 µM	> 100 µM	> 100 µM	> 100 µM				
C/C(=N\NC(=S)NNC(=S)N(C)c1ccccc1)c1ccccn1	> 100 µM	12.6 µM	10.7 µM	26.6 µM	2.56 µM	20.3 µM	> 100 µM	> 100 µM	> 100 µM	17 µM	> 100 µM		> 83.8 µM	> 100 µM	> 100 µM	55.4 µM	> 100 µM	> 100 µM	72.8 µM
N#CC(NNC(=O)c1ccccc1O)c1ccccc1 (configuration not stated)	> 100 µM	4.87 µM		> 100 µM	> 100 µM	> 100 µM	85.9 µM	> 100 µM	> 100 µM	61.8 µM	> 100 µM	> 100 µM	> 100 µM	> 100 µM	> 100 µM				
